# Key:
# [1] = molecular target: T1, full-length human CSNK1A1 (Homo sapiens, UniProt P48729); experiment: CSNK1A1 Assay 2 (ADP-Glo, 1 μM ATP, substrate biotin-Ahx-KRRRAL-pS-VASLPGL); type: biochemical; conditions: Table 3, read-out: CSNK1A1 Assay 2 IC50 [mol/l] (median)
# T1 construct: N-terminal Glutathion-S-Transferase (GST) and full-length human CSNK1A1; purchased Life Technologies PV4174; host or cells: baculovirus infected insect cells
# Method in brief: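 GST-tagged full-length human CSNK1A1 from baculovirus-infected insect cells (about 0.0375 ng/μL), preincubated 15 min at 22 °C with compound in HEPES pH 7.5 buffer, with 1 μM ATP and biotin-Ahx-KRRRAL-pS-VASLPGL substrate. ADP formed read by ADP-Glo luminescence.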
# [2] = molecular target: T1, full-length human CSNK1A1; experiment: CSNK1A1 High ATP Assay (ADP-Glo, 1 mM ATP); type: biochemical; conditions: Table 3, read-out: CSNK1A1 high ATP assay IC50 [mol/l] (median);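 note: 30 min kinase reaction at 22 °C with 100 µM peptide substrate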
# Method in brief: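 GST-tagged full-length human CSNK1A1 from baculovirus-infected insect cells (typically about 0.4 ng/μL), pre-incubated with compound 15 min at 22 °C. Reaction with biotinylated peptide biotin-Ahx-KRRRAL-pS-VASLPGL at 1 mM ATP. ADP formed read by ADP-Glo luminescence.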
# T1 sequence (P48729 whole entry): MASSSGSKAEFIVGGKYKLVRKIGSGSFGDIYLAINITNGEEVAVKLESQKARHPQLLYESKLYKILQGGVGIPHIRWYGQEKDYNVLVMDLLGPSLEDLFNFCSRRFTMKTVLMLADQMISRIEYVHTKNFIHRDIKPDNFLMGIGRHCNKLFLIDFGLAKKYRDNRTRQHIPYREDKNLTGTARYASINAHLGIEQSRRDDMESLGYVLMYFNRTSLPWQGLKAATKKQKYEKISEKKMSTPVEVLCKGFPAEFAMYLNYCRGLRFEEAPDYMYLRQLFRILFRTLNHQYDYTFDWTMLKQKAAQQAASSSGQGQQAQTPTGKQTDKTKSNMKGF
SMILES,IC50 [1] [nM],IC50 [2] [nM]
"O=C(Nc1cc(-c2[nH]c3ncc(F)nc3c2-c2ccccn2)ccn1)C(CC(F)F)c1ccc(F)cc1 (single isomer, unassigned) [Example 64, (2R or S)-4,4-difluoro-2-(4-fluorophenyl)-N-{4-[2-fluoro-7-(pyridin-2-yl)-5H-pyrrolo[2,3-b]pyrazin-6-yl]pyridin-2-yl}butanamide]",23,23
"O=C(Nc1cc(-c2[nH]c3ccnnc3c2-c2ccccn2)ccn1)C(CC(F)F)c1ccc(F)cc1 (single isomer, unassigned) [Example 66, (2R or 2S)-4,4-difluoro-2-(4-fluorophenyl)-N-{4-[7-(pyridin-2-yl)-5H-pyrrolo[3,2-c]pyridazin-6-yl]pyridin-2-yl}butanamide]",2.43,2.43
"O=C(Nc1cc(-c2[nH]c3ccnnc3c2-c2ccccn2)ccn1)C(CC(F)F)c1ccc(F)cc1 (single isomer, unassigned) [Example 67, (2R or S)-4,4-difluoro-2-(4-fluorophenyl)-N-{4-[7-(pyridin-2-yl)-5H-pyrrolo[3,2-c]pyridazin-6-yl]pyridin-2-yl}butanamide]",22,22
"O=C(Nc1cc(-c2[nH]c3c(O[C@H]4CCOC4)ncnc3c2-c2ccccn2)ccn1)C(CC(F)F)c1ccc(F)cc1 (single isomer, unassigned) [Example 73, (2R or S)-4,4-difluoro-2-(4-fluorophenyl)-N-{4-[4-{[(3S)-oxolan-3-yl]oxy}-7-(pyridin-2-yl)-5H-pyrrolo[3,2-d]pyrimidin-6-yl]pyridin-2-yl}butanamide]",4.16,4.16
"O=C(Nc1cc(-c2[nH]c3c(O[C@H]4CCOC4)ncnc3c2-c2ccccn2)ccn1)C(CC(F)F)c1ccc(F)cc1 (single isomer, unassigned) [Example 74, (2R or S)-4,4-difluoro-2-(4-fluorophenyl)-N-{4-[4-{[(3S)-oxolan-3-yl]oxy}-7-(pyridin-2-yl)-5H-pyrrolo[3,2-d]pyrimidin-6-yl]pyridin-2-yl}butanamide]",35.8,35.8
"O=C(Nc1cc(-c2[nH]c3c(OCC(F)F)ncnc3c2-c2ccccn2)ccn1)C(CC(F)F)c1ccc(F)cc1 (single isomer, unassigned) [Example 79, (2R or S)—N-{4-[4-(2,2-difluoroethoxy)-7-(pyridin-2-yl)-5H-pyrrolo[3,2-d]pyrimidin-6-yl]pyridin-2-yl}-4,4-difluoro-2-(4-fluorophenyl)butanamide]",3.1,3.1
"O=C(Nc1cc(-c2[nH]c3c(OCC(F)F)ncnc3c2-c2ccccn2)ccn1)C(CC(F)F)c1ccc(F)cc1 (single isomer, unassigned) [Example 80, (2R or S)—N-{4-[4-(2,2-difluoroethoxy)-7-(pyridin-2-yl)-5H-pyrrolo[3,2-d]pyrimidin-6-yl]pyridin-2-yl}-4,4-difluoro-2-(4-fluorophenyl)butanamide]",16.9,16.9
"COc1cnc2c(-c3ccccn3)c(-c3ccnc(NC(=O)C(CC(F)F)c4ccc(F)cc4)c3)[nH]c2c1 (single isomer, unassigned) [Example 82, 4,4-difluoro-2-(4-fluorophenyl)-N-{4-[6-methoxy-3-(pyridin-2-yl)-1H-pyrrolo[3,2-b]pyridin-2-yl]pyridin-2-yl}butanamide]",2.68,2.68
"COc1cnc2c(-c3ccccn3)c(-c3ccnc(NC(=O)C(CC(F)F)c4ccc(F)cc4)c3)[nH]c2c1 (single isomer, unassigned) [Example 83, 4,4-difluoro-2-(4-fluorophenyl)-N-{4-[6-methoxy-3-(pyridin-2-yl)-1H-pyrrolo[3,2-b]pyridin-2-yl]pyridin-2-yl}butanamide]",9.86,9.86
"O=C(Nc1cc(-c2[nH]c3cc(Cl)cnc3c2-c2ccccn2)ccn1)C(CC(F)F)c1ccc(F)cc1 (single isomer, unassigned) [Example 88, (+)—N-{4-[6-chloro-3-(pyridin-2-yl)-1H-pyrrolo[3,2-b]pyridin-2-yl]pyridin-2-yl}-4,4-difluoro-2-(4-fluorophenyl)butanamide]",4.72,4.72
"O=C(Nc1cc(-c2[nH]c3cc(Cl)cnc3c2-c2ccccn2)ccn1)C(CC(F)F)c1ccc(F)cc1 (single isomer, unassigned) [Example 89, (−)—N-{4-[6-chloro-3-(pyridin-2-yl)-1H-pyrrolo[3,2-b]pyridin-2-yl]pyridin-2-yl}-4,4-difluoro-2-(4-fluorophenyl)butanamide]",89,89
"Cc1cnc2c(-c3ccccn3)c(-c3ccnc(NC(=O)C(CC(F)F)c4ccc(F)cc4)c3)[nH]c2n1 (single isomer, unassigned; (+)) [Example 86, (+)-4,4-difluoro-2-(4-fluorophenyl)-N-{4-[3-methyl-7-(pyridin-2-yl)-5H-pyrrolo[2,3-b]pyrazin-6-yl]pyridin-2-yl}butanamide]",2.89,2.89
"COc1cnc2c(-c3ccccn3)c(-c3ccnc(NC(=O)C(CC(F)F)c4ccc(F)cc4)c3)[nH]c2c1 (stereo not drawn) [Example 81, 4,4-difluoro-2-(4-fluorophenyl)-N-{4-[6-methoxy-3-(pyridin-2-yl)-1H-pyrrolo[3,2-b]pyridin-2-yl]pyridin-2-yl}butanamide]",4.02,4.02
"Cc1ccnc2c(-c3ccccn3)c(-c3ccnc(NC(=O)C(CC(F)F)c4ccc(F)cc4)c3)[nH]c12 (stereo not drawn) [Example 84, 4,4-difluoro-2-(4-fluorophenyl)-N-{4-[7-methyl-3-(pyridin-2-yl)-1H-pyrrolo[3,2-b]pyridin-2-yl]pyridin-2-yl}butanamide]",4.77,4.77
"Cc1cnc2c(-c3ccccn3)c(-c3ccnc(NC(=O)C(CC(F)F)c4ccc(F)cc4)c3)[nH]c2n1 (stereo not drawn) [Example 85, 4,4-difluoro-2-(4-fluorophenyl)-N-{4-[3-methyl-7-(pyridin-2-yl)-5H-pyrrolo[2,3-b]pyrazin-6-yl]pyridin-2-yl}butanamide]",4.21,4.21
